Data taken from patent publication US9156796B2, “Benzoimidazole-carboxylic acid amide derivatives as APJ receptor modulators” (SANOFI, priority 2013, dated 2015).

molecular target: T1, human apelin receptor (Homo sapiens, UniProt P35414); test: Determination of agonism on the human apelin receptor by a calcium fluorescence assay (FLIPR); assay type: cell-based; details: HEK293 cells stably transfected with human apelin receptor and Giaq protein, Fluo-4 calcium fluorescence, read-out: EC50 (APJ agonism)
T1 construct: expressed in transfected cells
T1 sequence (P35414 1-380): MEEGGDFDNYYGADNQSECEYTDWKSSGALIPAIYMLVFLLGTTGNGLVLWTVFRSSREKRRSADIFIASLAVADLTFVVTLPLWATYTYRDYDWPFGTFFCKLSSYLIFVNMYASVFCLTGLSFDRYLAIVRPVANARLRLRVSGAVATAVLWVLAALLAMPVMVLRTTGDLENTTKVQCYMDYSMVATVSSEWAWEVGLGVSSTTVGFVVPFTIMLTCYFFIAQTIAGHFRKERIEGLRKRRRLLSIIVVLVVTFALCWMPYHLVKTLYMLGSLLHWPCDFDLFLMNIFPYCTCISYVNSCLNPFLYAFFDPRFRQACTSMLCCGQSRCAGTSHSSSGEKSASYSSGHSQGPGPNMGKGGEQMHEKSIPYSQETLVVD
How it was run: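 HEK293 cells stably co-expressing human apelin receptor and promiscuous Giaq, loaded 1 h at 37 °C with Fluo-4 (4 μM) in probenecid-containing Hepes buffer, pH 7.4. Compounds, at least 7 concentrations in triplicate, added in FLIPR Tetra; peak calcium fluorescence normalized to 1 μM apelin-13 as 100% to derive EC50.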

**Q.** How did the EC50 turn out when `CCC(CC)n1c(Cc2cccs2)nc2cc(C(=O)N[C@@H](CC(C)C)C(=O)NCC3COCCO3)ccc21` (stereo partly drawn) [Example 393, 1-(1-Ethyl-propyl)-2-thiophen-2-ylmethyl-1H-benzoimidazole-5-carboxylic acid {(S)-1-[([1,4]dioxan-2-ylmethyl)-carbamoyl]-3-methyl-butyl}-amide] was run?
**A.** 1.36 µM

**Q.** For `CCC(CC)n1c(Cc2cccs2)nc2cc(C(=O)N[C@@H](CC(C)C)C(=O)NCC(C)(C)OC)ccc21` [Example 394, 1-(1-Ethyl-propyl)-2-thiophen-2-ylmethyl-1H-benzoimidazole-5-carboxylic acid [(S)-1-(2-methoxy-2-methyl-propylcarbamoyl)-3-methyl-butyl]-amide], which EC50 is on record?
**A.** 2.33 µM

**Q.** How did the EC50 turn out when `CCC(CC)n1c(Cc2cccs2)nc2cc(C(=O)N[C@@H](CC(C)C)C(=O)N(C)CC3CCCCO3)ccc21` (stereo partly drawn) [Example 395, 1-(1-Ethyl-propyl)-2-thiophen-2-ylmethyl-1H-benzoimidazole-5-carboxylic acid {(S)-3-methyl-1-[methyl-(tetrahydro-pyran-2-ylmethyl)-carbamoyl]-butyl}-amide] was run?
**A.** 1.76 µM

**Q.** Which EC50 does the source give for `CCC(CC)n1c(Cc2cccs2)nc2cc(C(=O)N[C@@H](CC(C)C)C(=O)N(CC)CC3CCCCO3)ccc21` (stereo partly drawn) [Example 396, 1-(1-Ethyl-propyl)-2-thiophen-2-ylmethyl-1H-benzoimidazole-5-carboxylic acid {(S)-1-[ethyl-(tetrahydro-pyran-2-ylmethyl)-carbamoyl]-3-methyl-butyl}-amide] here?
**A.** 4.04 µM

**Q.** `CCC(CC)n1c(Cc2cccs2)nc2cc(C(=O)N[C@@H](CC(C)C)C(=O)NC3COC4(CCCCC4)C3)ccc21` (stereo partly drawn) [Example 397, 1-(1-Ethyl-propyl)-2-thiophen-2-ylmethyl-1H-benzoimidazole-5-carboxylic acid [(S)-3-methyl-1-(1-oxa-spiro[4.5]dec-3-ylcarbamoyl)-butyl]-amide] was tested. Which EC50 did it give?
**A.** 8.74 µM

**Q.** With `CCC(CC)n1c(Cc2cccs2)nc2cc(C(=O)N[C@@H](CC(C)C)C(=O)NC3COC4(CCCC4)C3)ccc21` (stereo partly drawn) [Example 398, 1-(1-Ethyl-propyl)-2-thiophen-2-ylmethyl-1H-benzoimidazole-5-carboxylic acid [(S)-3-methyl-1-(1-oxa-spiro[4.4]non-3-ylcarbamoyl)-butyl]-amide] as the compound, how does the EC50 read?
**A.** 5.46 µM

**Q.** With `CCC(CC)n1c(Cc2cccs2)nc2cc(C(=O)N[C@@H](CC(C)C)C(=O)NCc3nnn[nH]3)ccc21` [Example 399, 1-(1-Ethyl-propyl)-2-thiophen-2-ylmethyl-1H-benzoimidazole-5-carboxylic acid {(S)-3-methyl-1-[(1H-tetrazol-5-ylmethyl)-carbamoyl]-butyl}-amide] as the compound, how does the EC50 read?
**A.** 0.099 µM

**Q.** For `CCC(CC)n1c(Cc2cccs2)nc2cc(C(=O)N[C@@H](CC(C)C)C(=O)NCCc3nnn[nH]3)ccc21` [Example 400, 1-(1-Ethyl-propyl)-2-thiophen-2-ylmethyl-1H-benzoimidazole-5-carboxylic acid {(S)-3-methyl-1-[2-(1H-tetrazol-5-yl)-ethylcarbamoyl]-butyl}-amide], which EC50 is on record?
**A.** 0.07 µM

**Q.** `CCC(CC)n1c(Cc2cccs2)nc2cc(C(=O)N[C@@H](CC(C)C)C(=O)NCCS(N)(=O)=O)ccc21` [Example 401, 1-(1-Ethyl-propyl)-2-thiophen-2-ylmethyl-1H-benzoimidazole-5-carboxylic acid [(S)-3-methyl-1-(2-sulfamoyl-ethylcarbamoyl)-butyl]-amide] was tested. Which EC50 did it give?
**A.** 0.6 µM

**Q.** For `CCC(CC)n1c(Cc2cccs2)nc2cc(C(=O)N[C@@H](CC(C)C)C(=O)NCCNS(C)(=O)=O)ccc21` [Example 402, 1-(1-Ethyl-propyl)-2-thiophen-2-ylmethyl-1H-benzoimidazole-5-carboxylic acid [(S)-1-(2-methanesulfonylamino-ethylcarbamoyl)-3-methyl-butyl]-amide], which EC50 is on record?
**A.** 0.777 µM

**Q.** `CCC(CC)n1c(Cc2cccs2)nc2cc(C(=O)N[C@@H](CC(C)C)C(=O)NCC#N)ccc21` [Example 403, 1-(1-Ethyl-propyl)-2-thiophen-2-ylmethyl-1H-benzoimidazole-5-carboxylic acid [(S)-1-(cyanomethyl-carbamoyl)-3-methyl-butyl]-amide] was tested. Which EC50 did it give?
**A.** 1.61 µM
